Source: patent US9556153B1, “JAK1 inhibitors” (Eli Lilly and Company, priority 2015, dated 2017)

Assays:
[1] = tested on: phosphorylation of STAT3 in the H1975 xenograft; test: pSTAT3 Mouse IVTI (JAK1) Assay, H1975 xenograft; format: in vivo; conditions: single oral dose, two hours, n=1
Protocol: pSTAT3 Mouse IVTI (JAK1) Assay
The purpose of this assay is to measure the ability of test compounds to inhibit the phosphorylation of STAT3 (STAT3 activation) in the H1975 xenograft mouse model. Grow H1975 cells according to ATCC specifications at the lowest possible passage number available. Culture and maintain cells in RPMI-1640 supplemented with 10% FBS and incubated at 37° C. in 5% CO2. Harvest cells by standard techniques and mix with BD Biosciences basement membrane matrix (MATRIGEL®) to cell suspension to achieve a 1:1 cell/matrix ratio yielding an inoculation volume of 0.2 mL cell/matrix suspension containing 5e6 cells. […] Time course studies are a single dose administered at the TED70 determined from the dose response study.
Harvest and cut tumors to yield approximately 150-250 mm^3 size fragments and immediately drop into a 12×75 mm tube containing 1 mL of ice cold MSD Tris Lysis buffer (Meso Scale Discovery cat# R60TX-2) and 1×HALT (Thermo Scientific product #1861281). […] Cool plate to RT and measure absorbance at or near 562 nm on Molecular Devices Spectra Max. Protein concentrations for each sample are determined using SoftMax Pro 6.3 software program. After tumor samples are quantitated, freeze lysates at −80° C. in the 96 well polypropylene plate and assay at a later date. […]

JAK1 = JAK1 (Homo sapiens, UniProt P23458); test: Human whole blood assay: pSTAT3 (JAK1) in lymphocytes; format: cell-based; design: endogenous in cells; host or cells: human whole blood, CD4+ lymphocytes; conditions: HWB
JAK1, sequence (P23458 whole entry): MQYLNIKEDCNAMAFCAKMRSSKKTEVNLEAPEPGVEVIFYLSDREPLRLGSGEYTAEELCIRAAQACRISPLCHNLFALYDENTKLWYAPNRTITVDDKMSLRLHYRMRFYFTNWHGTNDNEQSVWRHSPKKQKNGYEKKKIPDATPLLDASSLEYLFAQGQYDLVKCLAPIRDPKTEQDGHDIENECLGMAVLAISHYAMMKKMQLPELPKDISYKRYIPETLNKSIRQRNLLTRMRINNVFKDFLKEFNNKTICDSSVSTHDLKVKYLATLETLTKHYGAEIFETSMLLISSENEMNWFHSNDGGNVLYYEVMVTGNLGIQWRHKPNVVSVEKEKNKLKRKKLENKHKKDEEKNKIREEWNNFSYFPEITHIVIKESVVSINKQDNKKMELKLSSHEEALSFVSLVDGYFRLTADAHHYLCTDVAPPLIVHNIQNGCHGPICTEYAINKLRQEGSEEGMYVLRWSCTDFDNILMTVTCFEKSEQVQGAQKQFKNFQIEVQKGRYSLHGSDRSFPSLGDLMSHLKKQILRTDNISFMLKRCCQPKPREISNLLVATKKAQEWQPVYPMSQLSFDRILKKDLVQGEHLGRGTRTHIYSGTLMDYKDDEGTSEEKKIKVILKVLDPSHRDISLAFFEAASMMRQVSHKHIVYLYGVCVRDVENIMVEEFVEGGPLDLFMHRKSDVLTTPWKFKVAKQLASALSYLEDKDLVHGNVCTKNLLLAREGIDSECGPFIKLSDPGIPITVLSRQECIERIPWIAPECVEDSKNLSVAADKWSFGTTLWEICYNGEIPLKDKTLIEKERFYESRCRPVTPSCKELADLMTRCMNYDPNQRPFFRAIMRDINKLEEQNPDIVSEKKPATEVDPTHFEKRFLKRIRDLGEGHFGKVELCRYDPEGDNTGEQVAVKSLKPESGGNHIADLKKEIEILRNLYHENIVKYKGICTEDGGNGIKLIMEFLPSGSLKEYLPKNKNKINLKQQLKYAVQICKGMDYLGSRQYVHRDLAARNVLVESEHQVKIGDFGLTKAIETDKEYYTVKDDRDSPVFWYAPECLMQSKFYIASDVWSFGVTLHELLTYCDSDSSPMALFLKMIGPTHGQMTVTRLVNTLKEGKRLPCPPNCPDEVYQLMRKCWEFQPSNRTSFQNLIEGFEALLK
Text: (§1) Human Whole Blood Assays: Determination of pSTAT3 (JAK1) and pSTAT5 (JAK2) in Lymphocytes and Monocytes
(§2) Human whole blood (HWB) assays were developed and validated to determine the JAK1 and JAK2 selectivity of test compounds.
(§3) Dilute the test compounds, 10 points, (1:3) in DMSO 100% and a step down in PBS+0.1% BSA. Use tofacitinib as a reference compound in each plate, as well as a maximum signal (stimulated wells) and a minimum signal (no stimulated wells) in order to normalize data. Obtain a pool of HWB from 4 different healthy donors. Plate the blood in a 96 well plate using a Tecan Evo 96w and incubate with test compounds for 1 h at RT. After this time of incubation, stimulate HWB with both IL6 (206-IL, R&D System) and GM-CSF (PHC2015, Life Technologies) for 15 more minutes. […]
(§4) The final concentrations in the assay are the following: 100 μM for compounds, 50 μM for tofacitinib, 0.1 μg/mL IL6, 0.038 μg/mL GM-CSF and 1% DMSO. […] Incubate the antibodies for 1 h in dark at RT, then wash cells 2× and read on Cytometer Macsquant (Miltenyi Biotec). Gate the data on CD4+(lymphocytes) and CD4Low CD33Hi (monocytes), to measure the fluorescence from cells expressing pSTAT3 and pSTAT5 respectively. Analyze the data using FlowJo v_10 and the normalize the median of fluorescence versus maximum and minimum signal to determine the IC50s. […]

JAK2 = JAK2 (Homo sapiens, UniProt O60674); test: Human whole blood assay: pSTAT5 (JAK2) in monocytes; format: cell-based; design: endogenous in cells; host or cells: human whole blood, CD4Low CD33Hi monocytes; conditions: HWB, GM-CSF stimulated, CD4Low CD33Hi monocytes; n=3
JAK2, sequence (O60674 whole entry): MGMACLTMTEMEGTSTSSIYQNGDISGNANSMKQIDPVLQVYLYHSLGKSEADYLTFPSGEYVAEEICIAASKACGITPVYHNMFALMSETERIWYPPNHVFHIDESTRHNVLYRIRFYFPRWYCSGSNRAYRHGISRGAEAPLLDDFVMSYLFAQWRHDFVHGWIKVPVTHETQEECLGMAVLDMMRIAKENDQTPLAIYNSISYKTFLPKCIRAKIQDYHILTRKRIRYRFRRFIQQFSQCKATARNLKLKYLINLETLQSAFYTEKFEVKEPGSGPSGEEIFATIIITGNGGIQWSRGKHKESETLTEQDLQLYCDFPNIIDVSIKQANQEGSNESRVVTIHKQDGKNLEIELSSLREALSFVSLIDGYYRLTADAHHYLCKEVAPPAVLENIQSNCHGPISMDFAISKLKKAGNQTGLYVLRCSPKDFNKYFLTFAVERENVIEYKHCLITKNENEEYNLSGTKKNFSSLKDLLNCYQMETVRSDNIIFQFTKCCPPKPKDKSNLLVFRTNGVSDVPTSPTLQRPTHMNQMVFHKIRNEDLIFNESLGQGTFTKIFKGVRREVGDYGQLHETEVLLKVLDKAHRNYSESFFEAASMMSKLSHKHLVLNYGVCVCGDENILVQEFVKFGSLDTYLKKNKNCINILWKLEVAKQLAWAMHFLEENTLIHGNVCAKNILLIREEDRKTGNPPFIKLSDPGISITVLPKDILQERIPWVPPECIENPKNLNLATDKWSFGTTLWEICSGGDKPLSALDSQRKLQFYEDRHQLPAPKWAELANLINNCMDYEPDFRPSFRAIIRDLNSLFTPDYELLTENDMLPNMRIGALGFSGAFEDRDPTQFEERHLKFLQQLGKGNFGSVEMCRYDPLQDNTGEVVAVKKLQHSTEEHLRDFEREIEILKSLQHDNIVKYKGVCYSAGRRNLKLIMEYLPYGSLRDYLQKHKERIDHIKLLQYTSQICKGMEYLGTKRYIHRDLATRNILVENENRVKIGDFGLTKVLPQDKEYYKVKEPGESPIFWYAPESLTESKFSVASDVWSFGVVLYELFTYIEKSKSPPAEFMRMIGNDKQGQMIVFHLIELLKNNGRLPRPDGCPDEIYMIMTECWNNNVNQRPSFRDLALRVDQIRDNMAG
Text: as §1, §2, §3, §4

IC50 (JAK1; IL6 stimulated, CD4+ lymphocytes, n=3): 2.4 ± 0.64 µM
potency for JAK1 over JAK2 in a human whole blood assay (JAK1; JAK1 over JAK2): approximately 5 ×
IC50 (JAK2): 13 ± 3.2 µM
Compound: Cc1cc(Nc2cc(O[C@H]3CC[C@@H](NC[C@@H](O)C(F)(F)F)CC3)cc3c2ncn3C)nn1C [Example 1, (2R)-3-{[cis-4-({4-[(1,5-Dimethyl-1H-pyrazol-3-yl)amino]-1-methyl-1H-benzimidazol-6-yl}oxy)cyclohexyl]amino}-1,1,1-trifluoropropan-2-ol]
TEC50 (plasma concentration to achieve 50% pSTAT3 inhibition) [1]: 11.1 μM
TED50 (dose necessary to achieve 50% pSTAT3 inhibition) [1]: 35 mg/kg
